For data set [1], the system named is luciferase mRNA. Kind of data set: Detection of reporter gene (luciferase mRNA) expression in mice in vivo. More on the design: species or system BALB/c female mice. The note with it: LNP-delivered luciferase mRNA, quadriceps muscle injection, IVIS 24 h after injection; dose (5 or 14 μg mRNA) not given. Here is the method: The prepared LNP-encapsulated mRNA solution was diluted with PBS buffer to obtain the solution for injection. BALB/c female mice at about 20 g were injected with injection solution at the quadriceps muscle site of mice with an insulin syringe, and each mouse was injected with 50 μL. Two doses were designed: one dose of “5 μg mRNA per 50 μL of injection solution” and the other dose of “14 μg mRNA per 50 μL of injection solution”. BALB/c female mice at about 20 g are injected with PBS buffer at the quadriceps muscle site of mice with an insulin syringe, and each mouse was injected with 50 μL.
After the mice were injected for 24 h, in vivo expression of Luciferase was detected with Perkinelmer's IVIS. The substrate was D-luciferin Sodium salt (GOLDBIO, LUCNA-1G), which was formulated into a concentration of 15 mg/mL with normal saline, filtered and sterilized with a 0.22 μm filter membrane, and stored at −20° C. in aliquots protected from light. Before imaging, each mouse at about 20 g was intraperitoneally injected with 200 μL of substrate solution for 10-20 minutes, and then was anesthetized with isoflurane gas and placed prone on the imaging plate to detect the fluorescence of the animal in vivo, and the results are shown in Table 2.

Data set [2] in a line: In vivo expression distribution analysis of delivered luciferase mRNA (RT-PCR in tissues). More on the design: species or system C57BL/6J mice. The note with it: single intramuscular injection 50 μg; for Exposure in tissues and organs, from high to low: delivered luciferase mRNA, 2 h-336 h, RT-PCR. On the procedure: In order to investigate the distribution features of lipid-delivering mRNA in vivo, we analyzed the distribution features of the reporter luciferase mRNA of the compounds of the present invention in C57BL/6J mice after administration by a single intramuscular injection. The experimental 10 C57BL/6J mice were enrolled, male and female, each administered 50 μg, with SM102 as the control.
Animals in the negative control group were collected at 2 h and 336 h after administration, and animals in the test group were collected at 2 h, 6 h, 24 h, 48 h, 72 h, 120 h, 168 h, and 336 h after administration whole blood, bone marrow, liver, spleen, heart, kidney, inguinal lymph nodes, mesenteric lymph nodes, spleen, brain, stomach, small intestine, non-injection site muscle, injection site muscle tissue, etc. The RNA content in the samples at each time point was detected by RT-PCR, and the lower limit of quantification of the method was […] to reflect the distribution features in C57BL/6J mice.

Data set [3] relates to BALB/c female mice. Kind of data set: Acute toxicity analysis of lipid molecules (cationic lipid LNP) in BALB/c female mice. To be noted: blood 24 h after injection, Ave(SD).
The nature of data set [4]: mRNA-LNP encapsulation: particle size, PDI and encapsulation rate of LNP. The format is physicochemical. Here is the method: The mRNA stock solution was dispersed in 20 mM acetic acid solution (pH 5.0) to a final concentration of 200 μg/mL (aqueous phase). A fat mixture (oil phase) was obtained by mixing under a molar ratio of the exemplary compound:cholesterol:DSPC:DMG-PEG2000=50:38.5:10:1.5. The flow rate of the aqueous phase and the oil phase was controlled by T mixed flow, and the mRNA and lipid mixture were mixed under the volume ratio of 3:1 to obtain LNP-encapsulated mRNA. The encapsulated LNP was diluted 10-fold with buffer, then concentrated by ultrafiltration, and the dilute was displaced, and finally the LNP was concentrated to mRNA being 200 µg/mL, and the pH of the LNP was adjusted to about 7-8. Finally, the Ribogreen kit and 10% OTG were used as demulsifiers to detect the total content of mRNA and the content of […], and the encapsulation rate of LNP was calculated. The LNP final product was diluted 10-fold with diluent, added 1 mL into a particle size cell, and placed on the Malvern ZetaSizer instrument to detect the particle size and PDI of LNP.

The mark [5] stands for this setting: LNP of compound:cholesterol:DSPC:DMG-PEG2000=50:38.5:10:1.5 with mRNA, Malvern ZetaSizer.

The structures appear in SMILES notation.

`CCCCCCCCCCCOC(=O)CCCCCN(CCCCCO)CCCCCCCC(=O)OC(CCCCCCCC)CCCCCCCC` [Example 1] showed an Average fluorescence intensity in data set [1] of 1.218E+06 P/s/cm^2/sr. The “Exposure in tissues and organs, from high to low” value (“Exposure in tissues and organs” below) in data set [2] is “injection site muscle, inguinal lymph nodes, whole blood, spleen, non-injection site muscle, bone marrow, heart, liver, mesenteric lymph nodes, kidney, small intestine and brain”. Besides, in data set [3] (high dose group, 150 μg LNP/pc), the Alanine aminotransferase came out at 38.16 U/L, the “Alkaline phosphatase (ALP)” value is on record as 112.7 U/L, the Aspartate aminotransferase is recorded as 125.26 U/L and the Creatinine stood at 12.4 µmol/L. Besides, in data set [3] (high dose group, 150 μg LNP/pc), the “Total bilirubin (TBIL)” value was found to be 1.56 and the “γ-Glutamyltransferase (GGT)” value is recorded as 0.12 (0.12) U/L. Also, in data set [3] (low dose group, 50 μg/pc), the Alanine aminotransferase is recorded as 33.46 (3.54) U/L, the “Alkaline phosphatase (ALP)” value was determined as 114.38 U/L, the Aspartate aminotransferase is on record as 109.92 U/L and the Creatinine amounted to 13.8 µmol/L. For the same molecule, in data set [3] (low dose group, 50 μg/pc), the “Total bilirubin (TBIL)” value is listed as 1.18 (0.13) and the “γ-Glutamyltransferase (GGT)” value was 0.22 (0.33) U/L.

In data set [1], `CCCCCCCCCCCOC(=O)CCCCCN(CCCCCCCC(=O)OC(CCCCCCCC)CCCCCCCC)CC1(O)CC1` [Example 13] came in with an Average fluorescence intensity of 2.78E+05 P/s/cm^2/sr. In addition, the “Level (distribution) of delivered mRNA in the stomach” value (“Level (distribution)” below) in data set [2] (compared with SM-102) was “relatively higher level”. Moreover, the “Exposure in tissues and organs” value in data set [2] is “inguinal lymph nodes, injection site muscles, non-injection site muscles, whole blood, spleen, bone marrow, mesenteric lymph nodes, heart, liver, kidneys, stomach, small intestine and brain”. Moreover, in data set [3] (high dose group, 150 μg LNP/pc), the Alanine aminotransferase is on record as 39.99 U/L, the “Alkaline phosphatase (ALP)” value came to 109.84 U/L, the Aspartate aminotransferase was 126.77 U/L and the Creatinine worked out at 12.4 µmol/L. In addition, in data set [3] (high dose group, 150 μg LNP/pc), the “Total bilirubin (TBIL)” value came to 1.34 and the “γ-Glutamyltransferase (GGT)” value was 0.18 (0.18) U/L. In data set [3] (low dose group, 50 μg/pc), the Alanine aminotransferase is 36.19 (3.01) U/L, the “Alkaline phosphatase (ALP)” value came to 111.74 U/L, the Aspartate aminotransferase amounted to 110.27 U/L and the Creatinine came out at 13.5 µmol/L. In data set [3] (low dose group, 50 μg/pc), the “Total bilirubin (TBIL)” value was 1.18 (0.23) and the “γ-Glutamyltransferase (GGT)” value is on record as 0.38 (0.41) U/L.

Turning to `CCCCCCCCCCCOC(=O)CCCCCN(CCO)CCCCCCCC(=O)OC(CCCCCCCC)CCCCCCCC` [SM102, reference compound], in data set [4] (setting [5]), the PDI is 0.1296 and the “Particle size (nm)” value amounted to 92.16 nm. Besides, in data set [4] (LNP-encapsulated mRNA, Ribogreen kit), the Encapsulation rate stood at 95%. In data set [1], this molecule had an Average fluorescence intensity of 1.112E+06 P/s/cm^2/sr. Also, the “Exposure in tissues and organs” value in data set [2] is “inguinal lymph nodes, injection site muscles, whole blood, non-injection site muscles, spleen, bone marrow, heart, mesenteric lymph nodes, liver, kidney, small intestine, and brain”. In addition, in data set [3] (high dose group, 150 μg LNP/pc), the Alanine aminotransferase was determined as 56.18 U/L, the “Alkaline phosphatase (ALP)” value is 116.88 U/L, the Aspartate aminotransferase stood at 145.96 U/L and the Creatinine is 12.6 µmol/L. Besides, the “γ-Glutamyltransferase (GGT)” value in data set [3] (high dose group, 150 μg LNP/pc) was 0.32 (0.22) U/L. Further, in data set [3] (low dose group, 50 μg/pc), the Alanine aminotransferase is 36.04 (2.93) U/L, the “Alkaline phosphatase (ALP)” value amounted to 131.7 U/L, the Aspartate aminotransferase stood at 121.4 U/L and the Creatinine was found to be 14.6 µmol/L. The “γ-Glutamyltransferase (GGT)” value in data set [3] (low dose group, 50 μg/pc) was 0.41 (0.24) U/L.

In data set [1], `CCCCCCCCCCCOC(=O)CCCCCN(CCCCCCCC(=O)OC(CCCCCCCC)CCCCCCCC)CC(F)(F)CO` [Example 11] showed an Average fluorescence intensity of 1.39E+03 P/s/cm^2/sr.

Regarding `CCCCCCCCCCCOC(=O)CCCCCN(CCCCCCCC(=O)OC(CCCCCCCC)CCCCCCCC)C1(CO)CC1` [Example 14], the Average fluorescence intensity in data set [1] is given as 1.91E+03 P/s/cm^2/sr.

`CCCCCCCCCCCOC(=O)CCCCCN(CCCCCCCC(=O)OC(CCCCCCCC)CCCCCCCC)C(C)CCCO` (stereo not shown) [Example 8] showed an Average fluorescence intensity in data set [1] of 1.17E+03 P/s/cm^2/sr.

Take `CCCCCCCCCCCOC(=O)CCCCCN(CCCCCCCCCCO)CCCCCCCC(=O)OC(CCCCCCCC)CCCCCCCC` [Example 6]: in data set [1], the Average fluorescence intensity stood at 5.08E+05 P/s/cm^2/sr.

In data set [1], `CCCCCCCCCCCOC(=O)CCCCCN(CCCCCCCO)CCCCCCCC(=O)OC(CCCCCCCC)CCCCCCCC` [Example 3] gave an Average fluorescence intensity of 8.55E+05 P/s/cm^2/sr.

As for `CCCCCCCCCCCOC(=O)CCCCCN(CCCCCCCCCO)CCCCCCCC(=O)OC(CCCCCCCC)CCCCCCCC` [Example 5], in data set [1], the Average fluorescence intensity came to 5.67E+05 P/s/cm^2/sr.

In data set [1], `CCCCCCCCCCCOC(=O)CCCCCN(CCCCCCCCO)CCCCCCCC(=O)OC(CCCCCCCC)CCCCCCCC` [Example 4] yielded an Average fluorescence intensity of 5.47E+05 P/s/cm^2/sr.

The molecule `CCCCCCCCCCCOC(=O)CCCCCN(CCCCCCCCCCCCO)CCCCCCCC(=O)OC(CCCCCCCC)CCCCCCCC` [Example 7] yielded an Average fluorescence intensity in data set [1] of 4.73E+05 P/s/cm^2/sr. In data set [2] (compared with SM-102), the “Level (distribution)” value is “higher distribution”. Moreover, the “Level (distribution)” value in data set [2] (compared with SM-102, listed as compound 7) is “relatively higher level”. Besides, the “Exposure in tissues and organs” value in data set [2] is “injection site muscle, inguinal lymph nodes, whole blood, spleen, non-injection site muscle, bone marrow, heart, liver, mesenteric lymph nodes, kidney, small intestine and brain”. Besides, in data set [3] (high dose group, 150 μg LNP/pc), the Alanine aminotransferase is 39.92 U/L, the “Alkaline phosphatase (ALP)” value is 103.8 U/L, the Aspartate aminotransferase is on record as 138.44 U/L and the Creatinine is 12.2 µmol/L. In data set [3] (high dose group, 150 μg LNP/pc), the “Total bilirubin (TBIL)” value was found to be 1.35 and the “γ-Glutamyltransferase (GGT)” value was 0.22 (0.04) U/L. In addition, in data set [3] (low dose group, 50 μg/pc), the Alanine aminotransferase is listed as 33.56 (5.17) U/L, the “Alkaline phosphatase (ALP)” value was determined as 107.58 U/L, the Aspartate aminotransferase is 109.54 U/L and the Creatinine was determined as 13.6 µmol/L. Further, in data set [3] (low dose group, 50 μg/pc), the “Total bilirubin (TBIL)” value was 1.18 (0.16) and the “γ-Glutamyltransferase (GGT)” value is 0.06 (0.12) U/L.

The molecule `CCCCCCCCCCCOC(=O)CCCCCN(CCCCCCCC(=O)OC(CCCCCCCC)CCCCCCCC)CC1(CO)CCC1` [Example 15] returned an Average fluorescence intensity in data set [1] of 1.57E+03 P/s/cm^2/sr.

`CCCCCCCCCCCOC(=O)CCCCCN(CCCCCCCC(=O)OC(CCCCCCCC)CCCCCCCC)CC1(CO)CC1` [Example 12] yielded an Average fluorescence intensity in data set [1] of 3.62E+03 P/s/cm^2/sr.

As to `CCCCCCCCCCCOC(=O)CCCCCN(CCCCCCCC(=O)OC(CCCCCCCC)CCCCCCCC)CC(C)(C)CO` [Example 10], the Average fluorescence intensity in data set [1] came out at 7.37E+03 P/s/cm^2/sr.

Molecule `CCCCCCCCCCCOC(=O)CCCCCN(CCCCCCCC(=O)OC(CCCCCCCC)CCCCCCCC)C(C)CCO` (stereo not shown) [Example 9] returned an Average fluorescence intensity in data set [1] of 3.74E+05 P/s/cm^2/sr. The “Level of delivered mRNA in the small intestine” value in data set [2] (compared with SM-102) is “relatively higher level”. Further, the “Exposure in tissues and organs” value in data set [2] is “inguinal lymph nodes, injection site muscles, non-injection site muscles, whole blood, spleen, bone marrow, mesenteric lymph nodes, heart, liver, kidney, small intestine, stomach and brain”. In data set [3] (high dose group, 150 μg LNP/pc), the Alanine aminotransferase was 37.25 U/L, the “Alkaline phosphatase (ALP)” value is recorded as 116.9 U/L, the Aspartate aminotransferase is 128.26 U/L and the Creatinine worked out at 12.1 µmol/L. In data set [3] (high dose group, 150 μg LNP/pc), the “Total bilirubin (TBIL)” value was 1.43 and the “γ-Glutamyltransferase (GGT)” value was 0.18 (0.15) U/L. Besides, in data set [3] (low dose group, 50 μg/pc), the Alanine aminotransferase was 35.44 (3.67) U/L, the “Alkaline phosphatase (ALP)” value worked out at 115.29 U/L, the Aspartate aminotransferase came out at 107.55 U/L and the Creatinine stood at 14.2 µmol/L. In data set [3] (low dose group, 50 μg/pc), the “Total bilirubin (TBIL)” value is given as 1.21 (0.19) and the “γ-Glutamyltransferase (GGT)” value is 0.24 (0.37) U/L.

For the origin of these results see US12312292B2, “Long chain alkyl esteramine lipid compound, preparation method therefor and application thereof in nucleic acid delivery” (RinuaGene Biotechnology Co., Ltd., priority 2022, dated 2025).
